Test results taken from paper PMC6813295, “A tumour-selective cascade activatable self-detained system for drug delivery and cancer imaging” (Nature Communications, 2019).
Where a SMILES comes first, the peptide text is derived from it. The star is where a group is joined. X1 = CC1(C)C(=CC=C2CCCC(C=CC3=[N+](CCCCCC(=O)O)c4ccccc4C3(C)C)=C2*)N(CCCCCC(=O)O)c2ccccc21

Tests used:
[1] = test system: H460 cells; format: cell-based, human; settings: 50 μM for 6, 12, 24 h (flow cytometry), 1–100 μM 24 h (CCK-8)
Method: lysed in an ice bath at 1℃, 16000g for 15 minutes, the supernatant was transferred to a pre-cooled centrifuge tube in an ice bath. For each group, 20 μM (final concentration) Ac-DEVD-AMC and 100μl cell lysate were added to 1 ml Protease Assay Buffer [20 mM HEPES (pH 7.5), 10% glycerol, 2 mM DTT]. The reaction mixtures were incubated for 1 hour at 37 °C. The AMC released from Ac-DEVD-AMC was measured using a spectrofluorometer with an excitation wavelength of 380 nm and an emission wavelength range of 400-550 nm.
Flow cytometry analysis. A density of 1 × 10^5 H460 cells per well were seeded in the 6-well plates in 1640 medium which contains 10% fetal bovine serum and 1% penicillin–streptomycin, then cultured at 37 °C in a humidified atmosphere with 5% CO 2 for 16 h. Then molecules 1, 2 and 3 (50 μM) were added to each well, and the cells were incubated for additional 6 h, 12 h and 24 h, respectively. The apoptosis of the collected cells stained by Annexin V -FITC and PI (propidium iodide) was studied by […]
Cell viability assays . CCK-8 (cell counting kit-8) assay was carried out to investigate the cell viability.
H460 cells were utilized to evaluate the cytotoxicity of molecules 1, 2 and 3 by the CCK-8 assay.
Molecules 1, 2 and 3 were dispersed in 1640 medium with different concentration s such as 1, 5, 10, 30, 60 and 100 μM. The cells with the density of 5 × 10^4 cells per well were seeded in the 96 -well plates in 1640 medium containing 10% fetal bovine serum and 1% penicillin –streptomycin, then cultured at 37 °C in a humidified atmosphere with 5% CO 2 for 16 h. […]
Microplate reader was used to measure the UV -Vis absorptions of sample wells (A sample), Ablack and control wells (A control) at a test wavelength of 450 nm and a reference wavelength of 690 nm, […]
Blood circulation. […] The supernatant of the blood samples was collected by centrifugation at 10 000 rpm for 10 min , and the content of compound 1, 2 and 3 in the supernatant w ere determined using fluorescence spectrophotometric measurement. […]
3 h. […] Morphologies of liposomes were measured by Tecnai G20 electron microscope. […]

[2] = test system: H460 tumour-bearing nude mice; assay: Pharmacokinetic parameters in tumour (DAS2.0); format: in vivo, mouse; settings: IV 14 mg/kg; for AUC0→t / AUC0→∞ / CL / MRT(0-t), mean retention time / Tmax / t1/2β, elimination half-life: in tumour, means ± SD n = 3; for AUC0→t: 0–48 h
Method: Animal experiments were performed in accordance with the Guide for the Care and Use of Laboratory Animals and approved by the Institutional Animal Care and Use Committee (IACUC) of the National Center for Nanoscience and Technology (NCNST), China. Female Balb/c nude mice (6–8 weeks, 18–22 g) were purchased from Vital River Laboratory Animal Technology Co. Ltd. H460 cells were subcutaneously implanted into these mice on the right flank. Then the mice were randomly grouped (n = 3). When the tumour grew to a single aspect of about 0.5 cm, we injected the molecules 1, 2 and 3 intravenously in the same dose of 14 mg/kg in PBS solution, respectively. Fluorescence images were measured by a Maestro II in vivo imaging system (CRi) at 1, 2, 4, 6, 8, 12, 24, 48, 72, 96 and 120 h post injection. Further, tumours and other major organs (i.e., heart, liver, spleen, lung and kidney) were collected for ex vivo fluorescence imaging at 48 h post injection. The organ biodistribution of the 1, 2 and 3 was examined using H460 xenografts mice. The mice were sacrificed at 2, 4, 8, 12, 24 or 48 h post injection. Finally, all the major organs and tumour were collected, weighed, and homogenized (0.3 mL of lysis buffer per 100 mg of tissues). The homogeneous tissue solutions were obtained for fluorescence imaging by IVIS Spectrum CT. Known concentrations of compound 1, 2 or 3 are used to make the standard curve (concentration from 2.8 to 25.2 μg/mL), the “Predicted R-Squared” value of 0.99. Then we utilized this standard curve to measure the molecule content in each tissue. In addition, EJ xenograft tumour mice model was built, as above described, to validate the generality of the strategy.
Supplementary Table 1︱Pharmacokinetic parameters of intravenously-administered 1, 2 and 3 in […]
Data are presented as means ± SD (n = 3). t1/2β, elimination half -life; CL, plasma clearance; Cmax, maximum concentration; Tmax, peak time ; MRT: mean retention time; AUC(0 -t), area under the 1, 2 and 3 concentration-time curve from time zero to the last quantifiable value; AUC(0 -∞), area und er the 1, 2 and 3 concentration -time curve from time zero to infinity, which represents the total drug exposure over time. h, hour(s).

CC[C@H](C)[C@H](NC(=O)[C@@H]1CCCN1C(=O)[C@@H](NC(=O)[C@H](C)N)C(C)C)C(=O)N[C@@H](C)C(=O)N[C@@H](CCC(N)=O)C(=O)N[C@@H](CCCCN)C(=O)N[C@@H](CC(=O)O)C(=O)N[C@@H](CCC(=O)O)C(=O)N[C@H](C(=O)N[C@@H](CC(=O)O)C(=O)N[C@@H](CCCCN)C(=O)N[C@@H](CC(C)C)C(=O)N[C@H](C(=O)N[C@@H](Cc1ccccc1)C(=O)N[C@@H](Cc1ccccc1)C(=O)N[C@@H](C)C(=O)N[C@@H](CCC(=O)O)C(=O)N[C@@H](CSC1=C(C=CC2=[N+](CCCCCC(=O)O)c3ccccc3C2(C)C)CCCC1=CC=C1N(CCCCCC(=O)O)c2ccccc2C1(C)C)C(=O)NCC(=O)O)C(C)C)C(C)C [molecule 1] (H-AVPIAQKDEVDKLVFFAEC(X1)G-OH)
apoptotic cell death (flow cytometry and cell viability assays) [1]: No apoptosis was observed | AUC0–48h in tumour of molecule 1 relative to 2 [2]: six-fold | AUC0–48h in tumour of molecule 1 relative to 3 [2]: three-fold | AUC0→t [2]: 71.2 ± 4.7 mg·h/g | AUC0→∞ [2]: 145.9 ± 1.0 mg·h/g | CL [2]: 1.3 ± 0.5 mL/min/kg | MRT(0-t), mean retention time [2]: 23.4 ± 0.2 h | Tmax [2]: 4.0 ± 0 h | t1/2β, elimination half-life [2]: 69.3 ± 0 h

CSCC[C@H](N)C(=O)N[C@@H](CC(=O)O)C(=O)N[C@@H](CCC(=O)O)C(=O)N[C@@H](CCCCN)C(=O)N[C@@H](C)C(=O)N[C@@H](CCC(N)=O)C(=O)N[C@@H](CCCCN)C(=O)N[C@@H](CC(=O)O)C(=O)N[C@@H](CCC(=O)O)C(=O)N[C@H](C(=O)N[C@@H](CC(=O)O)C(=O)N[C@@H](CCCCN)C(=O)N[C@@H](CC(C)C)C(=O)N[C@H](C(=O)N[C@@H](Cc1ccccc1)C(=O)N[C@@H](Cc1ccccc1)C(=O)N[C@@H](C)C(=O)N[C@@H](CCC(=O)O)C(=O)N[C@@H](CSC1=C(C=CC2=[N+](CCCCCC(=O)O)c3ccccc3C2(C)C)CCCC1=CC=C1N(CCCCCC(=O)O)c2ccccc2C1(C)C)C(=O)NCC(=O)O)C(C)C)C(C)C [molecule 2] (H-MDEKAQKDEVDKLVFFAEC(X1)G-OH; N-terminus assumed)
apoptotic cell death (flow cytometry and cell viability assays) [1]: No apoptosis was observed | AUC0→t [2]: 12.2 ± 1.9 mg·h/g | AUC0→∞ [2]: 14.1 ± 2.2 mg·h/g | CL [2]: 16.7 ± 2.5 mL/min/kg | MRT(0-t), mean retention time [2]: 15.2 ± 4.5 h | Tmax [2]: 3.3 ± 1.2 h | t1/2β, elimination half-life [2]: 10.0 ± 1.9 h

CC[C@H](C)[C@H](NC(=O)[C@@H]1CCCN1C(=O)[C@@H](NC(=O)[C@H](C)N)C(C)C)C(=O)N[C@@H](C)C(=O)N[C@@H](CCC(N)=O)C(=O)N[C@@H](CCCCN)C(=O)N[C@@H](CC(=O)O)C(=O)N[C@@H](CCC(=O)O)C(=O)N[C@H](C(=O)N[C@@H](CC(=O)O)C(=O)N[C@@H](CCC(=O)O)C(=O)N[C@@H](CSC1=C(C=CC2=[N+](CCCCCC(=O)O)c3ccccc3C2(C)C)CCCC1=CC=C1N(CCCCCC(=O)O)c2ccccc2C1(C)C)C(=O)NCC(=O)O)C(C)C [molecule 3] (H-AVPIAQKDEVDEC(X1)G-OH; N-terminus assumed)
apoptotic cell death (flow cytometry and cell viability assays) [1]: No apoptosis was observed | AUC0→t [2]: 26.6 ± 8.9 mg·h/g | AUC0→∞ [2]: 34.6 ± 12.2 mg·h/g | CL [2]: 7.33 ± 2.5 mL/min/kg | MRT(0-t), mean retention time [2]: 10.7 ± 1.8 h | Tmax [2]: 6.7 ± 2.3 h | t1/2β, elimination half-life [2]: 10.6 ± 2.8 h
